Reference: US20090068290A1, “BIFEPRUNOX DOSES FOR TREATING SCHIZOPHRENIA” (priority 2006, published 2009)

Tests used:
[1] = Clinical laboratory assessments (prolactin), Clinical Study Three; settings: bifeprunox 20, 30 mg; 6 weeks
Description: To assess the safety and tolerability of bifeprunox using physical examination, weight, waist circumference, vital signs (pulse rate and systolic/diastolic blood pressure [BP], and oral temperature), 12-lead electrocardiogram (ECG), clinical laboratory assessments (hematology, biochemistry including fasting insulin level, fasting glucose, fasting lipid profile, urinalysis, special laboratory assessments for prolactin, IGF-1, IGFBP-3, and thyroid function), need for anticholinergic treatment during double-blind treatment period, concomitant medication use, adverse event (AE) monitoring, and assessments of abnormal movement including the Simpson-Angus Scale (SAS), Barnes Akathisia Scale (BAS), and Abnormal Involuntary Movement Scale (AIMS).

[2] = Body weight, Clinical Study One; format: in vivo, human
Experimental: Statistical testing of the change from Baseline in weight was performed using similar methodology to that used for the secondary efficacy parameters (an ANCOVA model with factors for treatment and weight at Baseline). Pairwise comparisons of the bifeprunox treatment groups versus placebo were all statistically significant (bifeprunox 5 mg [p=0.025], bifeprunox 10 mg [p=0.009] and bifeprunox 20 mg [p=0.031] for the difference between bifeprunox and placebo mean change from Baseline in weight at Endpoint.

[3] = tested on: adult subjects with schizophrenia; experiment: PANSS total score, Clinical Study Two (6-week, risperidone-referenced); format: in vivo, human; settings: LOCF; for Change from Baseline in PANSS Total Score, Mean (SD) / Change from Baseline in PANSS Total Score, Median / PANSS Total Score, Trt Effect (difference between bifeprunox and placebo): ITT; for PANSS Total Score, Trt Effect (difference between bifeprunox and placebo): ANCOVA
Experimental: Treatment started with a single-blind placebo lead-in period of at least three days, followed by titration from 0.25 mg up to 30 mg/day or 40 mg/day of bifeprunox for bifeprunox-treated subjects.
Rating scale assessments were performed weekly, except for week 5, to measure the change from baseline to endpoint of the PANSS total score. Other assessments included: PANSS positive symptom subscale score, PANSS negative symptom subscale score, PANSS general pschopathology subscale score, BPRS total score, BPRS psychosis score, the CGI-S score, the CGI-I score, responder rates based on the PANSS total score, and the Calgary Depression Scale for Schizophrenia (CDSS).
Subjects who completed this study had the option to continue in the long-term. […] After completing a Single-Blind placebo lead-in period of at least three days, bifeprunox-treated subjects were titrated from 0.25 mg up to 30 mg/day or 40 mg/day according to a standardized titration scheme over an eight-day period. When the assigned dose was reached, subjects were maintained at that dose for the remainder of the six week treatment period. […] Rating scale assessments for efficacy and abnormal movement disorders were done weekly except for Week 5. Safety assessments were performed at Screening, during treatment and at the end of the study. Subject satisfaction with study medication was assessed at Week 6. Samples of blood were obtained at Weeks 2, 4, and 6 for determination of bifeprunox in plasma. Blood samples were also obtained at Screening/Baseline, Week 3, and Week 6 for clinical laboratory assessments.
Diagnosis and Main Criteria for Inclusion: Male or female subjects 18-75 years of age with schizophrenia (per DSM-IV-TR criteria). Subjects had to have a total score on the PANSS between 70 and 120; at least two of four PANSS items (conceptual disorganization, hallucinatory behavior, suspiciousness, unusual thought content) had to have a score ≧4; and the score on the CGI-S had to be at least 4.

[4] = tested on: adult subjects with schizophrenia; experiment: Adverse events (TEAE, SAE, special interest, EPS-related TEAE), Clinical Study Two; format: in vivo, human; settings: BX 30 mg
Experimental: Subjects who completed this study had the option to continue in the long-term. […] Risperidone-treated subjects were titrated from 2 mg to 6 mg daily over a three-day period and were subsequently maintained at 6 mg/day for the remainder of the treatment period. […] Blood samples were also obtained at Screening/Baseline, Week 3, and Week 6 for clinical laboratory assessments.

[5] = Bifeprunox 30 mg, Week 6/Endpoint
[6] = Bifeprunox 40 mg, Week 6/Endpoint

O=c1[nH]c2cccc(N3CCN(Cc4cccc(-c5ccccc5)c4)CC3)c2o1 [Bifeprunox, 7-[4-([1,1′-biphenyl]-3-ylmethyl)-1-piperazinyl]-2(3H)-benzoxazolone]
prolactin [1]: a decrease in prolactin
mean weight change at Endpoint ([2]; bifeprunox 5 mg): −1.0 lb
subjects whose weight decreased by more than 7% ([2]; bifeprunox 5 mg): 6%
mean weight change at Endpoint ([2]; bifeprunox 10 mg): −1.3 lb
subjects whose weight decreased by more than 7% ([2]; bifeprunox 10 mg): 7%
mean weight change at Endpoint ([2]; bifeprunox 20 mg): −0.6 lbs
subjects whose weight decreased by more than 7% ([2]; bifeprunox 20 mg): 8%
body weight (in words) ([2]; bifeprunox groups, 6 weeks): Mild weight loss
weight compared to placebo ([2]; bifeprunox, 6 weeks (Example 4)): statistically significant (P<0.05) weight decrease
Change from Baseline in PANSS Total Score, Mean (SD) ([3]; Bifeprunox 30 mg, Week 1): −6.6 (11.8)
Change from Baseline in PANSS Total Score, Median ([3]; Bifeprunox 30 mg, Week 1): −5
Change from Baseline in PANSS Total Score, Mean (SD) ([3]; Bifeprunox 30 mg, Week 2): −11.6 (15.5)
Change from Baseline in PANSS Total Score, Median ([3]; Bifeprunox 30 mg, Week 2): −10
Change from Baseline in PANSS Total Score, Mean (SD) ([3]; Bifeprunox 30 mg, Week 3): −13.3 (17.8)
Change from Baseline in PANSS Total Score, Median ([3]; Bifeprunox 30 mg, Week 3): −10
Change from Baseline in PANSS Total Score, Mean (SD) ([3]; Bifeprunox 30 mg, Week 4): −13.6 (18.9)
Change from Baseline in PANSS Total Score, Median ([3]; Bifeprunox 30 mg, Week 4): −10
Change from Baseline in PANSS Total Score, Mean (SD) [3, 5]: −13.5 (20.1)
Change from Baseline in PANSS Total Score, Median [3, 5]: −10
PANSS Total Score, Trt Effect (difference between bifeprunox and placebo) [3, 5]: −5.9
Change from Baseline in PANSS Total Score, Mean (SD) ([3]; Bifeprunox 40 mg, Week 1): −6.7 (11.5)
Change from Baseline in PANSS Total Score, Median ([3]; Bifeprunox 40 mg, Week 1): −6
Change from Baseline in PANSS Total Score, Mean (SD) ([3]; Bifeprunox 40 mg, Week 2): −8.9 (15.6)
Change from Baseline in PANSS Total Score, Median ([3]; Bifeprunox 40 mg, Week 2): −8
Change from Baseline in PANSS Total Score, Mean (SD) ([3]; Bifeprunox 40 mg, Week 3): −10.0 (17.8)
Change from Baseline in PANSS Total Score, Median ([3]; Bifeprunox 40 mg, Week 3): −10
Change from Baseline in PANSS Total Score, Mean (SD) ([3]; Bifeprunox 40 mg, Week 4): −9.2 (18.8)
Change from Baseline in PANSS Total Score, Median ([3]; Bifeprunox 40 mg, Week 4): −7
Change from Baseline in PANSS Total Score, Mean (SD) [3, 6]: −10.3 (20.5)
Change from Baseline in PANSS Total Score, Median [3, 6]: −7
PANSS Total Score, Trt Effect (difference between bifeprunox and placebo) [3, 6]: −3.2
difference from placebo, change from Baseline to Endpoint in PANSS total score ([3]; bifeprunox 30 mg (b57 prints 20 mg)): statistically significant difference from placebo
greater improvement from Baseline to Endpoint in PANSS total score compared with placebo ([3]; bifeprunox 30 mg): 5.9 point
PANSS Total Score, treatment effect versus placebo ([3]; bifeprunox 30 mg, week 2): −5.6
PANSS Total Score, treatment effect versus placebo ([3]; bifeprunox 30 mg, week 4): −6.3
difference from placebo, change from Baseline to Endpoint in PANSS total score ([3]; bifeprunox 40 mg): not significantly different from the placebo group
AKATHISIA, % [4]: (3%)
BALANCE DISORDER, % [4]: (<1%)
COGWHEEL RIGIDITY, % [4]: (<1%)
DISTURBANCE IN ATTENTION, % [4]: (<1%)
DIZZINESS, % [4]: (8%)
DYSARTHRIA, % [4]: (<1%)
DYSGEUSIA, % [4]: (<1%)
DYSKINESIA, % [4]: (1%)
Dystonia, % [4]: (2%)
EXTRAPYRAMIDAL DISORDER, % [4]: (5%)
HEADACHE NOS, % [4]: (12%)
MIGRAINE, % [4]: 1 (<1%)
NERVOUS SYSTEM DISORDERS, % [4]: (36%)
PARAESTHESIA, % [4]: 1 (<1%)
PSYCHOMOTOR HYPERACTIVITY, % [4]: 1 (<1%)
SEDATION, % [4]: 5%
